Laboratory results reported in the supplement of paper PMC11061612.

Experiments:
[1] = tested on: NCI-H2405 (Lung Adenocarcinoma); assay: Bliss excess, mean over the matrix (fraction); higher = more synergy
Method in brief: (§1)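 After 24 hours at 37°C and 5% CO2 in 1536-well plates, cells in DMEM/F12 or RPMI plus 10% FBS received two-drug dose matrices for 72 hours. Viability came from CellTiter-Glo 2.0 luminescence and was scaled as inhibition, anchored at 0 by vehicle wells and at 1 by blank wells. Combination Emax is taken as the second-highest inhibition in the matrix, and Bliss excess as the observed combination effect less EA + EB − EA·EB, with EA and EB the single-agent effects.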

[2] = tested on: KYSE-150 (Esophageal Squamous Cell Carcinoma); assay: as above
Method in brief: as §1

[3] = tested on: NB7 (Neuroblastoma); assay: as above
Method in brief: as §1

[4] = tested on: LC4-1 (B-Lymphoblastic Leukemia); assay: as above
Method in brief: as §1

[5] = tested on: DG-75 (Burkitt's Lymphoma); assay: as above
Method in brief: as §1

[6] = tested on: NCI-N87 (Gastric Carcinoma); assay: as above
Method in brief: as §1

[7] = tested on: IMR-5 (Neuroblastoma); assay: as above
Method in brief: as §1

[8] = tested on: KYSE-50 (Esophageal Squamous Cell Carcinoma); assay: as above
Method in brief: as §1

[9] = tested on: SCC-9 (Oral Cavity Carcinoma); assay: as above
Method in brief: as §1

[10] = tested on: NCI-H322M (Lung Adenocarcinoma); assay: as above
Method in brief: as §1

[11] = tested on: NH-12 (Neuroblastoma); assay: as above
Method in brief: as §1

[12] = tested on: LOU-NH91 (Squamous Cell Lung Carcinoma); assay: as above
Method in brief: as §1

[13] = tested on: NCI-H1573 (Lung Adenocarcinoma); assay: as above
Method in brief: as §1

[14] = tested on: TGBC11TKB (Gastric Carcinoma); assay: as above
Method in brief: as §1

[15] = tested on: KLE (Endometrial Carcinoma); assay: as above
Method in brief: as §1

[16] = tested on: NCI-H513 (Other Solid Carcinomas); assay: as above
Method in brief: as §1

[17] = tested on: KINGS-1 (Low Grade Glioma); assay: as above
Method in brief: as §1

[18] = tested on: EMC-BAC-2 (Non-Small Cell Lung Carcinoma); assay: as above
Method in brief: as §1

[19] = tested on: MFE-319 (Endometrial Carcinoma); assay: combination Emax (second highest fraction inhibited in the dose matrix, 72 h); higher = more inhibition; extreme values may be limits of the assay
Method in brief: as §1

[20] = tested on: RPMI-7951 (Melanoma); assay: as above
Method in brief: as §1
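For Bliss excess, mean over the matrix in this document: after 72 h of two-drug dosing.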

SMILES: CCc1c2c(nc3ccc(O)cc13)-c1cc3c(c(=O)n1C2)COC(=O)[C@]3(O)CC [SN-38] + O=C(c1cc(Cc2n[nH]c(=O)c3ccccc23)ccc1F)N1CCN(C(=O)C2CC2)CC1 [Olaparib] (first compound max 0.3 µM, 7x7, partner max 10 µM)
- Bliss excess [1]: 0.0105
- Bliss excess [2]: 0.0762
- Bliss excess [3]: 0.0625
- Bliss excess [4]: 0.0234
- Bliss excess [5]: 0.0451
- Bliss excess [6]: 0.0599
- Bliss excess [7]: 0.0721
- Bliss excess [8]: 0.0126
- Bliss excess [9]: 0.0207
- Bliss excess [10]: 0.0495
- Bliss excess [11]: -0.0089
- Bliss excess [12]: 0.0095
- Bliss excess [13]: -0.0085
- Bliss excess [14]: 0.0814
- Bliss excess [15]: 0.0346
- Bliss excess [16]: 0.0188
- Bliss excess [17]: 0.0161
- Bliss excess [18]: 0.0721
- combination Emax [19]: 0.301
- combination Emax [20]: 0.948
